Measured values from ChEMBL document CHEMBL1201862, “PubChem BioAssay data set” (2004).
Activity calls are given as the source filed them.

What was measured:
[1] = molecular target: T1, DNA repair protein RAD52 homolog (Homo sapiens, UniProt P43351); assay type: functional, biochemical
T1 sequence (P43351 whole entry): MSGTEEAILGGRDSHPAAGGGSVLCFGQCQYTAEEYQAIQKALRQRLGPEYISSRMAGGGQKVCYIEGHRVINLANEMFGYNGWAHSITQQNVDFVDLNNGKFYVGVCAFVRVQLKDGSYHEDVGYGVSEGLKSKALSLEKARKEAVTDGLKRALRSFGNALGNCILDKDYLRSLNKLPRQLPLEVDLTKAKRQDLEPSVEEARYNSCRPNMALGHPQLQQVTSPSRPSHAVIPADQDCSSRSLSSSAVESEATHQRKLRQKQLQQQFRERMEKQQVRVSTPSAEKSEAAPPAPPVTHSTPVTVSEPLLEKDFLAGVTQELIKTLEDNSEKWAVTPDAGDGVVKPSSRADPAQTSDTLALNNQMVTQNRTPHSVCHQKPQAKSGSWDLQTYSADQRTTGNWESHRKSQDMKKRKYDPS

[2] = molecular target: Glutathione-S-transferase (Schistosoma japonicum, UniProt Q26513); test: GST-antibody interaction or FRET quenching – biochemical, TR-FRET, artefact control for Vif-APOBEC3G degradation inhibitor project, dose response (AID 1117362); assay type: functional
Glutathione-S-transferase, sequence (Q26513 whole entry): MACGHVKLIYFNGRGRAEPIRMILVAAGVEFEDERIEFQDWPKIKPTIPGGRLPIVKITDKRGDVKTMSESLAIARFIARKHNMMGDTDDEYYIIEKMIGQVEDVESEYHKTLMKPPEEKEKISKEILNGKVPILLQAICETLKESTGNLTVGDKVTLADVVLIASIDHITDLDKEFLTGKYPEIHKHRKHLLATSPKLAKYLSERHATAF

[3] = molecular target: T2, Protein Tat (Human immunodeficiency virus type 1 group M subtype B (isolate HXB2)(HIV-1), UniProt P04608); assay type: functional;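 note: tat binding to TAR RNA read out by fluorescence polarization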
T2 sequence (P04608 whole entry): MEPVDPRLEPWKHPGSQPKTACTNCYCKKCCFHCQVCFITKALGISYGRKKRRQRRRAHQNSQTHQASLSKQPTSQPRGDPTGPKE

[4] = molecular target: Phospholipase D1 (Homo sapiens, UniProt Q13393); test: PLD1 Cellular Concentration Response Study.; assay type: functional
Phospholipase D1, sequence (Q13393 whole entry): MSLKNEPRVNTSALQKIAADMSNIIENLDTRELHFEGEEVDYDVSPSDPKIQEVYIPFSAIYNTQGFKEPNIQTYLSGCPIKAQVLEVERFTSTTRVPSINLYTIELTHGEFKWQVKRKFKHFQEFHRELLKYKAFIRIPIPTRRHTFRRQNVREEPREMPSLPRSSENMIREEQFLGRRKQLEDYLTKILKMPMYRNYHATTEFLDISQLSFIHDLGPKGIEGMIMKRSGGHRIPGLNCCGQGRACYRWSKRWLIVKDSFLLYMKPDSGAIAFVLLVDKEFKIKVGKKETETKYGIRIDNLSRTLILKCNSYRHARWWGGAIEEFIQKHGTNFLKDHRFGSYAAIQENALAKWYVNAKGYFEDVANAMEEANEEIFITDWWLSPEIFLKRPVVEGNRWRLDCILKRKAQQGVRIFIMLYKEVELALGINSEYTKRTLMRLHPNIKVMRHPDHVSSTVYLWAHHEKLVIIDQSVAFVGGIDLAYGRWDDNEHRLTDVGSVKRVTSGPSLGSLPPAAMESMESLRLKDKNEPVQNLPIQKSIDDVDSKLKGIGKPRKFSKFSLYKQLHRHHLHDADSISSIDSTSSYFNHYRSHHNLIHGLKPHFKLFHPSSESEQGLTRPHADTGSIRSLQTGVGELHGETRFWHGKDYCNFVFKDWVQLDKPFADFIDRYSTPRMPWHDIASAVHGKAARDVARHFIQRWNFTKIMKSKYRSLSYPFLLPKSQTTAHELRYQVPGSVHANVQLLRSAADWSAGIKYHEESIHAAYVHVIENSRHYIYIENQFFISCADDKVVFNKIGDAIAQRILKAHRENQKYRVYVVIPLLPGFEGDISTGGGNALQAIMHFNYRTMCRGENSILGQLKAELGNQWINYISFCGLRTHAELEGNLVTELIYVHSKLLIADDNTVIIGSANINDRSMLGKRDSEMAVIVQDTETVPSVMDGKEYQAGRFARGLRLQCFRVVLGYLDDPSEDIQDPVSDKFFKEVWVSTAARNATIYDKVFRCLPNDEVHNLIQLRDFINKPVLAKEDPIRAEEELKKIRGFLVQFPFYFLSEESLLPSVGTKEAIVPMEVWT

[5] = molecular target: Phospholipase D2 (Homo sapiens, UniProt O14939); test: PLD2 Cellular Concentration Response Study.; assay type: functional
Phospholipase D2, sequence (O14939 whole entry): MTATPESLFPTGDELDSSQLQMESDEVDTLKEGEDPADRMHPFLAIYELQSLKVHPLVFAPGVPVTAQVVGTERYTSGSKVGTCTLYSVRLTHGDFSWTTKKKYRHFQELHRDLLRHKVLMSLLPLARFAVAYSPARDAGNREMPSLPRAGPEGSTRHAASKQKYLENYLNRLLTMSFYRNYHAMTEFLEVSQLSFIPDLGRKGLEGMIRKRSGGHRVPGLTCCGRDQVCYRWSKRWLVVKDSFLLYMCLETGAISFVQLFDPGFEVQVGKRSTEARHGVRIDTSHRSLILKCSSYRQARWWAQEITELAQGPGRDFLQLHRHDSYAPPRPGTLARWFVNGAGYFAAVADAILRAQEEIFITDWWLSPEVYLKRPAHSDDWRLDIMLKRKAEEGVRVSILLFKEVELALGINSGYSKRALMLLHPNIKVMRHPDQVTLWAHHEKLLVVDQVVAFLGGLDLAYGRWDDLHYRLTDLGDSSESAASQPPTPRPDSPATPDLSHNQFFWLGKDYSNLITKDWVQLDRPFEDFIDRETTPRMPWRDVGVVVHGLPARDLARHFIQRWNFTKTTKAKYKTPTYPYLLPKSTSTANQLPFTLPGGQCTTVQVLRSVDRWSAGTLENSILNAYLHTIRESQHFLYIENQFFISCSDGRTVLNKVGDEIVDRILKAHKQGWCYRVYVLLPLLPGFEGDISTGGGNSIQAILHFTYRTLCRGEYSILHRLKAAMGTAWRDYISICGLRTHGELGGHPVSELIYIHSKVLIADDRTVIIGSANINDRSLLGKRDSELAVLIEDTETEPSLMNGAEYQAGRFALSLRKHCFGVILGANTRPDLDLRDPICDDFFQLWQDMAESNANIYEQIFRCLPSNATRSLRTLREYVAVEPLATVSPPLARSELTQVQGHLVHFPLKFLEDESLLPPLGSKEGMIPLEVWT

[6] = P. falciparum Dd2 growth inhibitors, dose response, SYBR Green, cherry-picked samples (AID 1159567); assay type: functional, cell-based
[7] = Dd2 malaria parasite growth inhibition potency – SYBR Green, dry powder samples, dose response (AID 1159566); assay type: functional, cell-based;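 note: potency for growth inhibition with lower SYBR green DNA signal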
[8] = growth inhibition of PfATP4-mutant resistant parasites – NITD609-resistant line, SYBR Green, dry powder, dose response (AID 1159571); assay type: functional, cell-based;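 note: parasites synchronized at ring stage by sorbitol before testing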
[9] = growth inhibition of yeast DHODH-expressing 3D7 parasites – SYBR Green, dry powder samples, dose response (AID 1159570); assay type: functional, cell-based;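 note: parasite growth measured after 72 hours of compound exposure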
[10] = Trypanosoma cruzi replication inhibitors in host cells – cell-based, plate reader, dry powder samples, dose response (AID 651845); assay type: functional
[11] = anti-trypanosomal activity in BESM host cells – imaging, CA-I/72 strain, bovine embryo skeletal muscle, dry powder, dose response (AID 651885); assay type: functional, cell-based
[12] = T. cruzi growth inhibition in host cells, dose response, cell-based, plate reader, dry powder, set 2 (AID 652275); assay type: functional

Nc1ccc(N2CCN(CCCCN3C(=O)C4CCCN4C3=O)CC2)cc1 (configuration not stated)
active: AC50 [1] 1.29 µM | IC50 [2] 3.15 µM | IC50 [3] > 100 µM

O=C(NCCN1CCC2(CC1)C(=O)NCN2Cc1cccnc1)c1cc2cc(F)ccc2[nH]1
active: IC50 [4] 3.15 µM | IC50 [5] 0.12 µM

COc1ccc2c3c(n(C)c2c1)[C@@H](CO)N(C(=O)c1ccc(F)cc1)CC31CCN(C(=O)Nc2ccc(F)cc2)CC1
active: AC50 [6] 1.89 µM | AC50 [7] 0.795 µM | AC50 [8] 1.06 µM | AC50 [9] 1.04 µM

CC(C)N1C[C@H](C)[C@@H](CN(C)Cc2ccccc2)Oc2c(NC(=O)c3ccncc3)cccc2C1=O
active: AC50 [10] 0.00035 µM | IC50 [11] 0.0026 µM | AC50 [12] 0.00035 µM
